Legend:
[1] = system: E. coli BW25113, E. coli JW2496-3, E. coli ATCC 25922; assay: Minimal inhibitory concentration assay (bactericidal/bacteriostatic assessment); format: cell-based; details: dilution series 100-1.7 μM
Description: The intended effect of a SurA inhibitor should be the induction of a disturbance of the outer membrane composition resulting in an increased susceptibility to antibiotic treatment. Of note, Vancomycin is typically not used to treat infections with Gram-negative bacteria, because it is excluded by the OM and not efficient at concentrations that could be achieved in patients. However, at appropriate dosing in vitro it can be used to detect outer membrane defects. For determining a potential sensitizing effect of Vancomycin treatment, the inventors first tested whether the compounds at hand were bactericidal per se. Therefore, the inventors performed a minimal inhibitory concentration (MIC) assay. To this end, 5 ml overnight cultures of E. coli BW25113 (Keio-Collection reference strain), E. coli JW2496-3 (Keio-Collection single gene knockout for bamB, which suffers from decreased outer membrane integrity) and E. coli ATCC 25922 (a reference strain recommended for antibiotic susceptibility testing) were grown in Mueller Hinton Broth, Cation adjusted (MHB-II). The next day, the OD was adjusted to obtain 1*10^8 CFU/ml using fresh MHB-II. Next, this bacterial solution was diluted 1:100 into 20 ml fresh MHB-II. 50 μl of this bacteria solution were then transferred into each well of a 96-well plate prefilled with 50 μl MHB-II supplemented with the desired compounds. The test plates for the bactericidal assessment contained dilution series of the compounds from 100-1.7 μM. Plates were sealed with a gas permeable membrane and incubated o/n at 37° C. in a humid chamber without shaking. After o/n incubation, bacterial growth was quantified by measuring the optical density at 600 nm wavelength in a multiplate reader. Compounds showing no growth inhibition at 100 μM were considered non-bactericidal. Of note, the bactericidal effect of Vancomycin was assessed similarly for each test strain using Vancomycin concentrations ranging from […]. This was done to identify a Vancomycin concentration at which the strains just managed to survive.

[2] = biological target: SurA (Escherichia coli, UniProt P0ABZ6); assay: Luciferase-based SurA activity assay (primary assay, in-house); format: biochemical, E. coli; details: n/d: no signal detected; for Primary Assay ICmax: QHL-10 derivatives, dose response up to 125 μM; for Primary Assay Amplitude: amplitude of signal
Description: The biological function of SurA is to bind and to keep outer membrane proteins that have reached the periplasm in an unfolded but folding-competent state. The inventors' assay is based on this interaction and uses firefly Luciferase (fLuc) as a non-native substrate. […] This is exploited in the assay (FIG. 3). The loss of tertiary structure of fLuc leads to the exposure of binding sites for SurA. It is known that SurA binds selectively to a special group of substrates. These substrates have in common the specific patterns of hydrophobic amino acids that are highly enriched in the beta strands of integral outer membrane proteins. These motifs are present in OMPs of all Gram-negative bacteria and in fLuc as well. Upon mild heat treatment of fLuc and its subsequent partial unfolding, fLuc is accepted as a substrate by SurA. Of note, these intermediates served as reporter substrates to determine the activity of a […] folding chaperone. […] This interaction remains stable upon temperature reduction. Next, the temperature of the assay is reduced to room temperature and luciferase activity is subsequently measured by addition of Luciferin and ATP. In conditions without SurA, fLuc will refold into its active conformation resulting in a luminescence signal.
In short, the Luciferase based SurA activity assay was performed in SurA Activity Assay Buffer (40 mM HEPES pH 7.4, 20 mM MgSO4, 0.5 g/I BSA). SurA aliquots were thawn at RT, activated by mild heat treatment and cooled down to RT for 10 min. […] Solution A containing 10 mM ATP as well as 0.3 mM Luciferin (Promega Beetle Luciferin, Potassium Salt) in water was prepared. Luciferase working solution was prepared by diluting 1 ml Luciferase working stock (100 nM) with 9 ml assay buffer. 33 μl of the protein solution were added to every 2nd row of a well of a 384-well PS, white, flat bottom plate. […] Subsequently, 2 μl of compound in DMSO were added in quadruplicates (4 wells each of protein solution and buffer controls). These compound solutions could contain either various compounds or different dilutions of the same compound allowing screening inhibitor activity in a dose dependent manner. After compound addition, plates were incubated 15 min at RT. After this incubation, 5 μl of Luciferase working solution were added to each well. Next, the plates were incubated 25 min at 38° C. to partially unfold the Luciferase. Subsequently, the assay plate was cooled for 5 min at 4° C. followed by 10 min incubation at RT prior to luminescence measurement. Luminescence was measured in a TECAN infinite M200 pro plate reader for each well individually after injection of 10 μl Solution A.

[3] = system: E. coli BW25113; assay: Sensitizer MIC assay (vancomycin); format: cell-based; details: 100 μM compound, wildtype strain
Protocol: (§1) To test for the sensitizer properties of the compounds, the inventors then performed a sensitizer MIC assay. To this end, E. coli BW25113, E. coli JW2496-3, and E. coli ATCC 25922 inocula were prepared as described above. Each well of a 96-well plate was prefilled with a fixed compound concentration of 100 μM and a dilution series of Vancomycin ranging from […]. A sensitizing effect was defined as reduction of the MIC value of Vancomycin of the respective test strain.

[4] = system: E. coli JW2496-3; assay: Sensitizer MIC assay (vancomycin); format: cell-based; details: 100 μM compound, more susceptible strain
Protocol: as §1

[5] = system: E. coli ATCC 25922; assay: Sensitizer MIC assay (vancomycin); format: cell-based; details: vancomycin; 100 μM compound; type strain
Protocol: as §1

Chain of SurA (P0ABZ6 21-428): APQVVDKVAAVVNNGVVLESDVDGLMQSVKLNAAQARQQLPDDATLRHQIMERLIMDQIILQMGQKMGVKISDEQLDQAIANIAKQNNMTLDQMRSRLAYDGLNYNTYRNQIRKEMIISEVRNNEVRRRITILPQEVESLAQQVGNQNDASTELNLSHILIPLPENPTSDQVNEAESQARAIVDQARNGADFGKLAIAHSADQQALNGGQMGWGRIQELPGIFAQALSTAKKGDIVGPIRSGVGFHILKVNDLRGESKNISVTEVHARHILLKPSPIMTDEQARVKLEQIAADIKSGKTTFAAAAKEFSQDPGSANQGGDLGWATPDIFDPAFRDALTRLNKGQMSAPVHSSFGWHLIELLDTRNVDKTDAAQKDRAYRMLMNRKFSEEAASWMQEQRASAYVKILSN

Structure (SMILES)	Bacteriostatic MIC Assay Result [1]	Primary Assay ICmax [2]	Primary Assay Amplitude [2]	Sensitizer MIC Assay (log2-fold reduction of MIC in presence of compound) BW25113 [3]	Sensitizer MIC Assay (log2-fold reduction of MIC in presence of compound) JW2496-3 [4]	Sensitizer MIC Assay (log2-fold reduction of MIC in presence of compound) ATCC25922 [5]
COc1ccc(Cc2nc(C(N)=O)c(NC(=O)c3ccc(-c4ccccc4)cc3)[nH]2)cc1 [Compound 1f, 5-([1,1′-biphenyl]-4-carboxamido)-2-(4-methoxybenzyl)-1H-imidazole-4-carboxamide]	slightly	16 µM	high	–	–	–
CCOC(=O)COc1ccc(Cc2nc(C(N)=O)c(NC(=O)c3cccc(-c4ccccc4)c3)[nH]2)cc1 [Compound 1b, Ethyl 2-(4-((5-([1,1′-biphenyl]-3-carboxamido)-4-carbamoyl-1H-imidazol-2-yl)methyl)phenoxy)acetate]	non-bacteriostatic	–	–	–	–	–
CCOc1ccc2ccccc2c1C(=O)Nc1[nH]c(-c2ccccc2O)nc1C(N)=O [Compound 3f, 5-(2-ethoxy-1-naphthamido)-2-(2-hydroxyphenyl)-1H-imidazole-4-carboxamide]	non-bacteriostatic	16 µM	low	1 log2-fold	2 log2-fold	1 log2-fold
CCOc1ccc2ccccc2c1C(=O)Nc1[nH]c(-c2cccc(N)c2)nc1C(N)=O [Compound 3e, 2-(3-aminophenyl)-5-(2-ethoxy-1-naphthamido)-1H-imidazole-4-carboxamide]	non-bacteriostatic	64 µM	low	0 log2-fold	0 log2-fold	0 log2-fold
NC(=O)c1nc(Cc2ccc(OCC(=O)O)cc2)[nH]c1NC(=O)c1ccccc1-c1ccccc1 [Compound 2c, 2-(4-((5-([1,1′-biphenyl]-2-carboxamido)-4-carbamoyl-1H-imidazol-2-yl)methyl)phenoxy)acetic acid]	non-bacteriostatic	–	–	0 log2-fold	0 log2-fold	0 log2-fold
NC(=O)c1nc(-c2cccc(N)c2)[nH]c1NC(=O)Cc1cccc2ccccc12 [Compound 3i, 2-(3-aminophenyl)-5-(2-(naphthalen-1-yl)acetamido)-1H-imidazole-4-carboxamide]	non-bacteriostatic	–	–	–	–	–
NC(=O)c1nc(-c2ccccc2O)[nH]c1NC(=O)Cc1cccc2ccccc12 [Compound 3j, 2-(2-hydroxyphenyl)-5-(2-(naphthalen-1-yl)acetamido)-1H-imidazole-4-carboxamide]	non-bacteriostatic	–	–	0 log2-fold	1-4 log2-fold	1 log2-fold
NC(=O)c1nc(Cc2ccccc2)[nH]c1NC(=O)c1ccc(-c2ccccc2)cc1 [Compound 1e, 5-([1,1′-biphenyl]-4-carboxamido)-2-benzyl-1H-imidazole-4-carboxamide]	non-bacteriostatic	16 µM	high	0 log2-fold	0 log2-fold	0 log2-fold
NC(=O)c1nc(-c2ccccc2O)[nH]c1NC(=O)c1ccc(-c2ccccc2)cc1 [Compound 3c, 5-([1,1′-biphenyl]-4-carboxamido)-2-(2-hydroxyphenyl)-1H-imidazole-4-carboxamide]	non-bacteriostatic	8 µM	high	0 log2-fold	1-2 log2-fold	1-2 log2-fold
NC(=O)c1nc(-c2cccc(N)c2)[nH]c1NC(=O)c1ccc(-c2ccccc2)cc1 [Compound 3b, 5-([1,1′-biphenyl]-4-carboxamido)-2-(3-aminophenyl)-1H-imidazole-4-carboxamide]	non-bacteriostatic	8 µM	high	1 log2-fold	1-3 log2-fold	1 log2-fold
NC(=O)c1nc(Cc2ccc(OCC(=O)O)cc2)[nH]c1NC(=O)c1cccc(-c2ccccc2)c1 [Compound 2b, 2-(4-((5-([1,1′-biphenyl]-3-carboxamido)-4-carbamoyl-1H-imidazol-2-yl)methyl)phenoxy)acetic acid]	non-bacteriostatic	64 µM	low	0 log2-fold	0 log2-fold	0 log2-fold
NC(=O)c1nc(-c2ccc(F)c(N)c2)[nH]c1NC(=O)Cc1cccc2ccccc12 [Compound 3k, 2-(3-amino-4-fluorophenyl)-5-(2-(naphthalen-1-yl)acetamido)-1H-imidazole-4-carboxamide]	non-bacteriostatic	–	–	0 log2-fold	0 log2-fold	0 log2-fold
NC(=O)c1nc(-c2cc(F)c(F)c(F)c2)[nH]c1NC(=O)c1ccccc1OCc1ccccc1 [Compound 3p, 5-(2-(benzyloxy)benzamido)-2-(3,4,5-trifluorophenyl)-1H-imidazole-4-carboxamide]	slightly	–	–	–	–	–
NC(=O)c1nc(Cc2ccc(O)cc2)[nH]c1NC(=O)c1ccc(-c2ccccc2)cc1 [Compound 2d, 5-([1,1′-biphenyl]-4-carboxamido)-2-(4-hydroxybenzyl)-1H-imidazole-4-carboxamide]	non-bacteriostatic	16 µM	high	–	–	–

Reference: patent US20240336573A1, “COMPOUND FOR THE TREATMENT AND PROPHYLAXIS OF INFECTIOUS DISEASES” (Eberhard Karls Universität Tübingen Medizinische Fakultät, priority 2021, published 2024)
